ChEMBL document CHEMBL1142072, “Comparison of itraconazole and fluconazole treatments in a murine model of coccidioidal meningitis” (2007)
≈ marks a conversion by molar mass, not a printed value. Calls of active or inactive are those of the source. The calls are words filed in the database; no cut-off is given here.

Legend:
[1] = test system: Mus musculus; assay: Prolongation of survival in po dosed CD1 mouse infected with Coccidioides immitis Silveira administered after 3 days of infection after 12 days relative to control; assay type: functional, organism-based
[2] = test system: Mus musculus; assay: Prolongation of survival in CD1 mouse infected with Coccidioides immitis Silveira administered after 3 days of infection at 10 mg/kg, po bid after 12 days relative to control; assay type: functional, organism-based; design: dose 10 mg/kg
[3] = test system: Coccidioides immitis; assay: Reduction of fungal burden in Coccidioides immitis Silveira infected po dosed CD1 mouse brain, spinal cord, lung, kidney administered twice daily after 3 days of infection measured after 5 days relative to control; assay type: functional, organism-based
[4] = test system: Coccidioides immitis; assay: Effect on fungal burdens in Coccidioides immitis Silveira infected CD1 mouse lung administered after 3 days of infection at 50 mg/kg, po bid after 12 days; assay type: functional, organism-based; design: dose 50 mg/kg
[5] = test system: Coccidioides immitis; assay: Antifungal activity against Coccidioides immitis by broth macrodilution method; assay type: functional; details: for MIC50 / MIC90: Coccidioides immitis
[6] = test system: Coccidioides immitis; assay: Effect on fungal burdens in Coccidioides immitis Silveira infected CD1 mouse brain administered after 3 days of infection at 50 mg/kg, po bid after 12 days; assay type: functional
[7] = test system: Coccidioides immitis; assay: Reduction of fungal burden in Coccidioides immitis Silveira infected CD1 mouse lung and kidney administered after 3 days of infection at 10 mg/kg, po bid after 5 days relative to control; assay type: functional, organism-based; design: dose 10 mg/kg
[8] = test system: Coccidioides immitis; assay: Effect on Coccidioides immitis Silveira infection in CD1 mouse brain, spinal cord and lungs administered after 3 days of infection at 50 mg/kg, po bid after 10 days; assay type: functional, organism-based; design: dose 50 mg/kg
[9] = test system: Mus musculus; assay: Prolongation of survival in CD1 mouse infected with Coccidioides immitis Silveira administered after 3 days of infection at 25 mg/kg, po bid after 12 days relative to control; assay type: functional, organism-based; design: dose 25 mg/kg
[10] = test system: Coccidioides immitis; assay: Effect on fungal burdens in Coccidioides immitis Silveira infected CD1 mouse spinal cord administered after 3 days of infection at 50 mg/kg, po bid after 12 days; assay type: functional
[11] = test system: Mus musculus; assay: Prolongation of survival in CD1 mouse infected with Coccidioides immitis Silveira administered after 3 days of infection at 50 mg/kg, po bid after 12 days relative to control; assay type: functional, organism-based; design: dose 50 mg/kg

For OC(Cn1cncn1)(Cn1cncn1)c1ccc(F)cc1F [FLUCONAZOLE], the Activity [1] was “Dose-dependent effect”, the Activity [2] was “Active” and the Activity [3] was “Dose-dependent effect”. The Activity [4] was “Active”, the MFC50 [5] was 25 µg/mL (≈ 81.6 µM) and the MFC90 [5] was greater than 100 µg/mL. The MIC50 [5] was 25 µg/mL (≈ 81.6 µM), the MIC90 [5] was greater than 100 µg/mL and the Activity [6] was “Active”. For the same compound, the Activity [7] was “inactive”, the Activity [8] was “Active” and the Activity [9] was “Active”. For the same compound, the Activity [10] was “Active” and the Activity [11] was “Active”.
CCC(C)n1ncn(-c2ccc(N3CCN(c4ccc(OCC5COC(Cn6cncn6)(c6ccc(Cl)cc6Cl)O5)cc4)CC3)cc2)c1=O (configuration not stated) [ITRACONAZOLE] was tested, and the Activity [1] was “Dose-dependent effect”, the Activity [2] was “Active” and the Activity [3] was “Dose-dependent effect”. For the same compound, the Activity [4] was “Active”, the MFC50 [5] was 1.56 µg/mL (≈ 2.21 µM) and the MFC90 [5] was 6.25 µg/mL (≈ 8.86 µM). The MIC50 [5] was 0.78 µg/mL (≈ 1.11 µM), the MIC90 [5] was 1.56 µg/mL (≈ 2.21 µM) and the log10CFU/g [6] was 0.75. The Activity [8] was “Active”, the Activity [9] was “Active” and the log10CFU/g [10] was 1.73. The Activity [11] was “Active”.
